From patent US11458212B2, “Molecular imaging of cancer cells in vivo” (H. Lee Moffitt Cancer Center and Research Institute, Inc., priority 2011, dated 2022)
Entries after “also recorded” stand apart in the source; their conditions may differ.

Experiments:
[1] = tested on: Trp1455/9M-specific CD8 T cells; test: In vivo cellular immune response assay (immune adjuvant); parameters: species or system B6 mice; conditions: for in vivo immune adjuvant activity (generation and persistence of antigen-specific CD8 T cells): compared with Pam2CSK4 and Pam3CSK4
Protocol: To assess the efficacy of T-02 as an immune adjuvant, mice were immunized i.v. with a mixture of 100 μg optimized Trp1455/9M peptide (Guevara-Patino, J. A., et al. J Clin Invest, 2006. 116(5):1382-90), 50 μg anti-CD40 mAb (Clone; FGk-45.5), and 50 μg TLR-2 peptide (T-02, Pam2CSK4, or Pam3CSK4). […] The response of tetramer+ CD8 T cells in the blood was measured on day 7, 21, and 34 by tetramer staining. For tetramer staining, peripheral blood was taken from the submandibular vein and treated briefly with ammonium chloride buffer to lyse red blood cells. Blood cells were stained with FITC-conjugated anti-MHC class II, PerCP Cy5.5-conjugated CD8a (both from eBioscience, San Diego, Calif.), and phycoerythrin-conjugated Trp1455/9M/H-2D^b tetramers (provided by the NIH tetramer Facility, Emory University, Atlanta Ga.) for 40 min in ice. Fluorescence was evaluated using a FACSCalibur™ flow cytometer (BD Biosciences) and analyzed using FlowJo software.
C57BL/6 (B6) mice 6-8 weeks old were purchased from Charles River (Wilmington, Mass.). To assess the efficacy of 10 as an immune adjuvant, B6 mice were immunized i.v. with a mixture (in a volume of 200 μl) of 100 μg optimized Trp1455/9M peptide,[10c] 50 μg anti-CD40 monoclonal antibody (Clone; FGk-45.5), and 50 μg TLR2 agonist (10, Pam2CSK4, or Pam3CSK4). […] The response of tetramer positive CD8 T cells in the blood was measured on day 7, 21 and 34 by tetramer staining. For tetramer staining, peripheral blood was taken from the submandibular vein and treated briefly with ammonium chloride buffer to lyse red blood cells. Blood cells were stained with FITC-conjugated anti-MHC class II, PerCP Cy5.5-conjugated CD8a, and phycoerythrin-conjugated Trp1455/9M/H-2D^b tetramers for 40 min in ice. Fluorescence was evaluated using a FACSCalibur flow cytometer (BD Biosciences) and analyzed using FlowJo software.

TLR2 [2] = target: T1, TLR2 (Homo sapiens, UniProt O60603); test: In vitro TLR2 functional bioassay (NF-κB luciferase, HEK293/hTLR2 cells); format: cell-based; parameters: host or cells: HEK293 stably transfected with pUNO-hTLR2, transiently transfected with the pNifty-Luc reporter
Source text: In Vitro TLR2 Functional Bioassay The in vitro TLR2 functional bioassay was developed and optimized for use in screening soluble compound libraries to identify both TLR2 agonists and antagonists. In this study, the TLR2 functional bioassay was used as a fast high throughput screening to identify TLR2 agonist ligands by measuring the inducing activity of NF-κB. HEK293/hTLR2 cells, highly overexpressing human TLR2, were used along with the parental HEK293, cells as a negative control. Cells were seeded at a density of 40,000 per well using a WellMate® Microplate dispenser (Thermo Fischer Scientific/Matrix) in black 96-well plates with opaque white wells (Perkin Elmer Wallac, Waltham, Mass.) and then incubated at 37° C. On day 2, the cells were transiently transfected with pNifty-Luc (InvivoGen), an NF-κB inducible reporter plasmid expressing the luciferase reporter gene (Zuany-Amorim, C., J., et al. Nat Rev Drug Discov, 2002. 1(10):797-807), using an optimized 4:1 ratio by volume of Fugene® HD Transfection Reagent (Roche Applied Science, Indianapolis, Ind.) to pNifty-Luc plasmid DNA (1 μg/mL). […] On day 4 after 24 hrs of peptide stimulation, luciferase induced activity by the induction of NF-κB was measured. Media was aspirated from the wells using an ELx405 Select plate washer (BioTek, Winooski, Vt.), 150 μg/mL D-luciferin (Gold Biotechnology, St. Louis, Mo.) was dispensed using the microplate dispensor; the plates were incubated at 37° C. for 5 min. The luminescence intensity was measured using the standard luminescence protocol on a Victor™ X4 plate-reader equipped with a plate stacker for readout of multiple plates at a time (PerkinElmer, Waltham, Mass.). For each in vitro TLR2 bioassay, at least three different experiments were performed in triplicate (n=3+). Data were analyzed with GraphPad Prism software and curves were generated with the appropriate nonlinear fit regression analysis.
The in vitro TLR2 functional bioassay was developed and optimized for use in high-throughput screening of soluble compound libraries to identify both TLR2 agonists and antagonists. The bioassay measures the induction of NF-κB signaling via TLR2 in HEK-293/hTLR2 cells and parental HEK-293 cells as a negative control. Cells were seeded at a density of 40,000 per well using a WellMate Microplate dispenser (Thermo Fisher Scientific/Matrix) in black 96-well plates with opaque white wells (PerkinElmer, Waltham, Mass.) and then incubated at 37° C. On day 2, the cells were transiently transfected with pNifty-Luc (InvivoGen, San Diego, Calif.), an NF-κB inducible reporter plasmid expressing the luciferase reporter gene[28] using an optimized 4:1 ratio by volume of FugeneHD Transfection Reagent (Promega, Madison, Wis.) to pNifty-Luc plasmid DNA (1 μg/mL). […] […] On day 4 after 24 h of peptide stimulation, luciferase induced activity by the induction of NF-κB was measured. Media was aspirated from the wells using an ELx405 Select CW plate washer (BioTek, Winooski, Vt.), 150 μg/mL D-luciferin (Gold Biotechnology, St. Louis, Mo.) was dispensed using the microplate dispensor; the plates were incubated at 37° C. for 5 min. The luminescence intensity was measured using the standard luminescence protocol on a Victor X4 Multilabel plate reader equipped with a plate stacker for readout of multiple plates at a time (PerkinElmer, Waltham, Mass.). […] Data were analyzed with GraphPad Prism software and curves were generated with the appropriate nonlinear fit regression analysis.
Target sequence in this assay (O60603 21-784): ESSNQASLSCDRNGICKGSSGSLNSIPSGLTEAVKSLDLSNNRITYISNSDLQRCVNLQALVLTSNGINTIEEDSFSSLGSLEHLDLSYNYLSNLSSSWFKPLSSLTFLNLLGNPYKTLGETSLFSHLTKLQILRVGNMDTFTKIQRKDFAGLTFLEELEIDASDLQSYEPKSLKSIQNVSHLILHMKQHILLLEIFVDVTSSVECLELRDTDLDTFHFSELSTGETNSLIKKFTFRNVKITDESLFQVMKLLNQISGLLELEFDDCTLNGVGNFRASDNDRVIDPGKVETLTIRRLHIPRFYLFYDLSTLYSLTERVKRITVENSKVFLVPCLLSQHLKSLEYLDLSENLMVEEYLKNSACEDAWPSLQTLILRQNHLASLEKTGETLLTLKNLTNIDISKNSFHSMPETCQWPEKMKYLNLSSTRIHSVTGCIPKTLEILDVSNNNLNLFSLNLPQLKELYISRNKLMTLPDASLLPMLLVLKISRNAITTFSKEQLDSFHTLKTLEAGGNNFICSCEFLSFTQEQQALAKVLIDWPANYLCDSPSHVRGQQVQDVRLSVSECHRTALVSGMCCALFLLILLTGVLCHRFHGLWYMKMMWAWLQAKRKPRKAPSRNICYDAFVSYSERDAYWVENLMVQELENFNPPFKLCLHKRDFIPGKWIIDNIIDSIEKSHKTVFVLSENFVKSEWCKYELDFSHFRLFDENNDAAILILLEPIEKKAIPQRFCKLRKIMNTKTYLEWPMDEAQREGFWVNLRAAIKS
Target sequence in this assay (Q9Y2C9 32-796 partner): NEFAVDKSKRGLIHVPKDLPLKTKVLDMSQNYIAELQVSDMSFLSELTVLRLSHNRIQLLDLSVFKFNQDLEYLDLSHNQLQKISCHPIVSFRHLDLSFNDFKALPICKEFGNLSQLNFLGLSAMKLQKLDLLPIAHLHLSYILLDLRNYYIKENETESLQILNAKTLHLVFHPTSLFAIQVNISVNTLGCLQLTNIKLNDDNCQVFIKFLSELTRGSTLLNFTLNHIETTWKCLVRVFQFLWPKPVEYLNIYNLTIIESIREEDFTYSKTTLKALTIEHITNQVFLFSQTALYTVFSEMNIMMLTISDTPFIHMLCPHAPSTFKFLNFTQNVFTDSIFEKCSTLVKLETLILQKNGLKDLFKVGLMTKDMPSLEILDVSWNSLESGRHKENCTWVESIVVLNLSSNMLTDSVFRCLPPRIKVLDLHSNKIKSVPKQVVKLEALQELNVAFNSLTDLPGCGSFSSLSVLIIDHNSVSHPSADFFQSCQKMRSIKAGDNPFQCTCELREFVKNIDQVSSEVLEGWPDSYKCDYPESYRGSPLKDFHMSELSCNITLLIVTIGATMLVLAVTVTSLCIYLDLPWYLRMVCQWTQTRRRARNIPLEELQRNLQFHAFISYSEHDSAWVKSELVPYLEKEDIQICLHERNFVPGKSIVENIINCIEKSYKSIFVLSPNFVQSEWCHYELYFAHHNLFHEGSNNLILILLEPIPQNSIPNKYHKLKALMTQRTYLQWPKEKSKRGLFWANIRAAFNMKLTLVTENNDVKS

TLR2 [3] = target: T1, TLR2; test: In cyto europium TRF saturation binding assay; parameters: ATCC (SU.86.86 CRL-1837, Capan-I HTB-79); SU.86.86 and Capan-I express TLR2 endogenously
Protocol: TRF binding assays were performed as previously described (see Xu, L., et al. Mol Cancer Ther. 2009 8(8):2356-65).
Europium TRF binding assays were performed as previously described with slight modifications using 3 cell lines that express TLR2: HEK-293/hTLR2, SU.86.86, and Capan-I.[23a, 23d, 29] The Capan-I and SU.86.86 cells were plated in 96-well black plates with white opaque wells (PerkinElmer); while the HEK-293/hTLR2 cells were plated on 96-well poly-D-lysine coated plates (Sigma-Aldrich) to aid in the attachment of these cells to the plate. Cells were grown in the 96-well plates for 2 days reaching approximately 80% confluency. Both types of plates were evaluated for nonspecific binding and background signal.
For saturation binding, increased concentrations of the labeled ligand, compound 11 (Table 8), were used to determine total binding to TLR2. Non-specific binding was determined in the presence of 1 μM Pam2CSK4. On the day of the experiment the medium was aspirated. 50 μL of binding buffer was added to the total binding wells and 50 μL of Pam2CSK4 was added to the non-specific wells and then allowed to incubate for 30 m at 37° C. Next, 50 μL of the serial dilutions of […] were added and then allowed to incubate for 1 h at 37° C. Cells were washed three times to remove unbound ligand. Next, 100 μL of DELFIA Enhancement Solution (PerkinElmer) was added to each well. Cells were incubated for 30 min at 37° C. prior to reading. The plates were read on the VICTOR X4 Multilabel plate reader using the standard europium TRF protocol (340 nm excitation, […] and […] collection at 615 nm). To determine the mean Kd, statistical analysis was performed using GraphPad Prism software.
Target sequence in this assay (O60603 21-784): as the sequence (O60603 21-784) above
Target sequence in this assay (Q9Y2C9 32-796 partner): as the sequence (Q9Y2C9 32-796 partner) above

TLR2 [4] = target: T1, TLR2; conditions: 95° C. for 30 min; cited from earlier work
Target sequence in this assay (O60603 21-784, species assumed): as the sequence (O60603 21-784) above

In the case of `CCCCCCCCCCCCCCCC(=O)OC[C@H](CSC[C@H](NC(=O)COCC(=O)NCCCOCCOCCOCCCNC(C)=O)C(=O)NCC(=O)NC(CO)C(=O)NCCCOCCOCCOCCCNC(=O)COCC(N)=O)OC(=O)CCCCCCCCCCCCCCC` (stereo partly drawn) [Compound 10, Ac-PEGO-Dhc(Pam)2-Gly-Ser-PEGO-NH2], the “in vivo immune adjuvant activity (generation and persistence of antigen-specific CD8 T cells)” value [1] is reported as “stimulated the immune system by generation and persistence of antigen-specific CD8 T cells; also recorded: exhibited activity similar to the other known TLR2 agonists; also recorded: induced an in vivo immune response comparable to the currently available TLR2 synthetic agonists”, the “in vivo immune adjuvant activity (generation and persistence of antigen-specific CD8 T cells)” value ([1]; listed as T-02) is reported as “exhibited similar in vivo activity comparable to the TLR-2 agonists, Pam2CSK4 and Pam3CSK4” and the “fluorescence of stained tetramer positive CD8 T cells” value ([1]; day 7) is reported as “High fluorescence”. The “response rate of the tetramer positive CD8 T cells” value ([1]; day 7) was 100%, the “maximum amount of fluorescently stained tetramer positive CD8 T cells” value ([1]; day 7, peripheral blood, i.v. immunization, n=3) was 49.6% and the “tetramer positive CD8 T cells” value ([1]; day 21) was 25.7%. For the same molecule, the “tetramer positive CD8 T cells” value ([1]; day 34) was 12.7%, the “fold of enhancement vs SAA at 1 μg/mL” value (TLR2 [2]; compound at 1 μg/mL) was 14 fold and the “fold of enhancement vs SAA at 10 μg/mL” value (TLR2 [2]; compound at 1 μg/mL) was 5.2 fold.

In the case of `CCCCCCCCCCCCCCCC(=O)OC[C@H](CSC[C@H](NC(=O)COCC(=O)NCCCOCCOCCOCCCNC(=O)CN(CCN(CCN(CC(=O)O)CC(=O)O)CC(=O)O)CC(=O)O)C(=O)NCC(=O)N[C@H](CO)C(=O)NCCCOCCOCCOCCCNC(=O)COCC(N)=O)OC(=O)CCCCCCCCCCCCCCC` [Compound 11], the “decrease in potency compared to 10” value (TLR2 [2]) is reported as 10 fold, the Bmax (TLR2 [3]; Capan-I cells) is reported as 951,170 AFU and the Bmax (TLR2 [3]; HEK-293/hTLR2 cells) is reported as 114,271 AFU. For the same molecule, the Bmax (TLR2 [3]; SU.86.86 cells) was 269,878 AFU and the Kd (TLR2 [3]; cell line not stated) was 30 nM.

B1: SAA: recombinant human Apo-SAA1 (Peprotech) derived from E. coli; serum amyloid A, acute-phase protein, TLR2 agonist (protein)
chain: MRSFFSFLGEAFDGARDMWRAYSDMREANYIGSDKYFHARGNYDAAKRGPGGVWAAEAISDRENIQRFFGHGAEDSLADQAANEWGRSGKDPNHFRPAGLPEKY
For B1, the “NF-κB induced luciferase activity (luminescence) in screening” value (TLR2 [2]; 1 μg/mL, SAA at 1 and 10 μg/mL) is given as “low potency” and the “loss of activity of heat-treated SAA” value (TLR2 [4]) is given as 95%.
